Source: patent US8802240B2, “Uses of formulations of thyroid hormone analogs and nanoparticulate forms thereof to increase chemosensitivity and radiosensitivity in tumor or cancer cells” (Nanopharmaceuticals LLC, priority 2011, dated 2014)
“Also recorded” adds a separate entry of the source. Like-named read-outs stand apart in the source and are kept apart here.

Legend:
ERK1/2 = experiment: MAPK activation in ECV304 cells (immunoblot of nuclear phosphorylated ERK1/2); assay type: cell-based; conditions: for effect on T4-induced ERK1/2 activation (in words): PD 98059 30 μmol/L or CGP41251 100 nmol/L for 30 minutes, then 10^−7 M T4 for 15 minutes
Description: ECV304 endothelial cells were cultured in M199 medium with 0.25% hormone-depleted serum 13 for 2 days. […] Nuclear fractions were prepared from all samples by the method reported previously (see Li et al., Carcinogenesis 29:62-69 (2008)), the proteins separated by polyacrylamide gel electrophoresis, and transferred to membranes for immunoblotting with antibody to phosphorylated ERK 1/2.

V-79 cells = conditions: cited from earlier work
ECV304 endothelial cells = experiment: FGF2 release from ECV304 endothelial cells (ELISA); assay type: cell-based
Description: ECV304 endothelial cells were cultured in M199 medium supplemented with 10% fetal bovine serum. […] After 72 hours, the supernatants were harvested and assays for FGF performed without dilution using a commercial ELISA system (R&D Systems) (See Davis et al., Circ Res 94:1500-1506 (2004)).

[1] = tested on: chick chorioallantoic membrane (CAM) blood vessel branch points; experiment: Chick chorioallantoic membrane (CAM) model of angiogenesis; assay type: in vivo; conditions: for generation of new blood vessels from existing vessels promoted: 10^−7-10^−9 M
Description: In vivo neovascularization was examined by methods described previously. 9-12 Ten-day-old chick embryos were purchased from SPAFAS (Preston, Conn.) and incubated at 37° C. with 55% relative humidity. A hypodermic needle was used to make a small hole in the shell concealing the air sac, and a second hole was made on the broad side of the egg, directly over an avascular portion of the embryonic membrane that was identified by candling. A false air sac was created beneath the second hole by the application of negative pressure at the first hole, causing the CAM to separate from the shell. […] Thyroid hormone, hormone analogs, FGF2 or control solvents, and inhibitors were then applied to the disks and the disks allowed to dry. The disks were then suspended in PBS and placed on growing CAMs. […] At 24 hours, the MAPK cascade inhibitor PD 98059 was also added to CAMs topically by means of the filter disks. […] The number of vessel branch points contained in a circular region equal to the area of each filter disk were counted. […] In addition, each experiment was performed 3 times. The resulting angiogenesis index is the mean±SEM of new branch points.

FGF2 cDNA = experiment: RT-PCR of FGF2 in ECV304 cells; assay type: cell-based; conditions: T4 10^−7 mol/L, apparent by 6 hours, further enhanced by 48 hours
Description: RNA (1 μg) was subjected to reverse transcription-polymerase chain reaction (RT-PCR) using the Access RT-PCR system (Promega). Total RNA was reverse transcribed into cDNA at 48° C. for 45 minutes, then denatured at 94° C. for 2 minutes. Second-strand synthesis and PCR amplification were performed for 40 cycles with denaturation at 94° C. for 30 s, annealing at 60° C. for 60 s, and extension at 68° C. for 120 s, with final ex-tension for 7 minutes at 68° C. after completion of all cycles. PCR primers for FGF2 were as follows: FGF2 sense strand 5′-[…]-3′ (SEQ ID NO:1), antisense strand 5′ […]-3′ (SEQ ID NO:2); the length of the PCR product was 734 bp. Primers for GAPDH included the sense strand 5′-[…]-3′ (SEQ ID NO:3), and antisense strand 5′-[…]-3′ (SEQ ID NO:4); the length of the PCR product was 218 bp. […] The target bands of the gel were quantified using LabImage software (Kapelan), and the value for [FGF2/GAPDH]X10 calculated for each time point.

pKa of functional groups = assay type: physicochemical; conditions: estimated
SF763 glioblastoma cells = conditions: 85 μM, 16 hours at 37° C., cited from earlier work
[2] = tested on: transplantable liver tumor; conditions: cited from earlier work
[3] = tested on: glioblastoma (GBM) patients; conditions: induction of mild hypothyroidism; cited from earlier work
Morris 7800 hepatoma = conditions: PTU 0.1%; cited from earlier work
[4] = tested on: matrigel plug angiogenesis; experiment: Mouse matrigel model of angiogenesis (plug hemoglobin); assay type: in vivo, mice (C57BL/6NCr); conditions: numbers are Tetrac analogs of Example 13; for Mean inhibition of angiogenesis (%) / Hemoglobin (mg/mL) ± SEM: FGF 100 ng + test substance 10 μg/plug; for Hemoglobin (mg/mL) ± SEM: n = 7-14
Description: Normal male mice (C57BL/6NCr) 6-8 weeks of age and weighing ˜20 g were purchased from Taconic farm. Animals were housed 4 per cage, in controlled conditions of temperature (20-24° C.); humidity (60-70%) and 12 hrs. light/dark cycle provided with food and water ad libitum. […] Aliquots of matrigel were placed into cold polypropylene tubes to prevent the matrigel from solidifying and the angiogenesis promoter added to matrigel with or without agonist. Mice were treated daily. Matrigel was subcutaneously injected as triple injection per animal at 100 μL/animal. At day 14 post plug implant all animals were killed in CO2 chamber and matrigel plugs were collected. Plug hemoglobin content was analyzed from three implants/mice (n=6 per group) to measure angiogenesis.
The matrigel plugs dissected from the mice were carefully stripped of any remaining peritoneum. The plugs were placed into 0.5 mL tube of ddH2O and homogenized for 5-10 min. […] Absorbance was read with a Microplate Manager ELISA reader at 540 nm. […] Hemoglobin concentration is a reflection of the number of blood vessels in the plugs.

M21 melanoma cells = conditions: 20 ug/ml; doses of 0, 5, and 10 Gy; cited from earlier work

CO[C@@H]1[C@H](N(C)C(=O)c2ccccc2)C[C@H]2O[C@]1(C)n1c3ccccc3c3c4c(c5c6ccccc6n2c5c31)C(=O)NC4 [CGP41251]
effect on T4-induced ERK1/2 activation (in words) (ERK1/2): blocked

NC(=O)c1cccc(N)c1 [Compound 3AB, 3-aminobenzamide]
inhibition of PLDR (V-79 cells; Thraves et al.): ~70%
Dq value (V-79 cells; with 3AB, without 3.4): 1 Gy

N[C@@H](Cc1cc(I)c(Oc2ccc(O)c(I)c2)c(I)c1)C(=O)O [Compound T3, 3,5,3′-triiodo-L-thyronine]
FGF2 (pg/mL/10^6 cells) (ECV304 endothelial cells; T3 (0.01 μmol/L), 3 days, Control 27.7 ± 3.1): 98.8 ± 0.5 pg/mL/10^6 cells
increase in blood vessel branch formation ([1]; 1 nmol/L (1 nM) for 3 days, vs PBS): 2 fold
generation of new blood vessels from existing vessels promoted [1]: two- to three-fold

N[C@@H](Cc1cc(I)c(Oc2cc(I)c(O)c(I)c2)c(I)c1)C(=O)O [Compound T4, L-thyroxine]
appearance of phosphorylated ERK1/2 in cell nuclei (ERK1/2; T4 10^−7 mol/L): ≤ 15 min
time of maximal level of nuclear phosphorylated ERK1/2 (ERK1/2; T4 10^−7 mol/L): 30 min
effect on MAPK activation caused by FGF2 (in words) (ERK1/2; T4 10^−7 mol/L + FGF2 10 ng/mL, 15-minute co incubation): enhanced the MAPK activation caused by FGF2
abundance of FGF2 cDNA, corrected for GAPDH content (in words) (FGF2 cDNA): increase in abundance of FGF2 cDNA
generation of new blood vessels from existing vessels promoted [1]: two- to three-fold
effect on the angiogenic effect of sub-maximal FGF2 (in words) ([1]; T4 0.05 μmol/L + FGF2 0.5 μg/mL): enhanced
pKa (pKa of functional groups; read-out: pKa of the COOH (carboxylic acid) group): ~2
pKa (pKa of functional groups; read-out: pKa of the NH2 (amino) group): ~9

CC(C)[C@H]1C(=O)N[C@@H](CCCN=C(N)N)C(=O)NCC(=O)N[C@@H](CC(=O)O)C(=O)N[C@H](Cc2ccccc2)C(=O)N1C [EMD121974]
increase of α (SF763 glioblastoma cells): 4.4 fold
α component in the LQ survival equation (SF763 glioblastoma cells; without approximately 0.04): ~0.18 Gy^−1

COc1cccc(-c2cc(=O)c3ccccc3o2)c1N [PD 98059]
effect on T4-induced ERK1/2 activation (in words) (ERK1/2): inhibited
FGF2 (pg/mL/10^6 cells) (ECV304 endothelial cells; T3 + PD 98059 (2 μmol/L)): 28.4 ± 3.2 pg/mL/10^6 cells
FGF2 (pg/mL/10^6 cells) (ECV304 endothelial cells; T3 + PD 98059 (20 μmol/L)): 21.7 ± 3.5 pg/mL/10^6 cells
FGF2 (pg/mL/10^6 cells) (ECV304 endothelial cells; T4 + PD 98059 (2 μmol/L)): 26.5 ± 4.5 pg/mL/10^6 cells
FGF2 (pg/mL/10^6 cells) (ECV304 endothelial cells; T4 + PD 98059 (20 μmol/L)): 23.2 ± 4.8 pg/mL/10^6 cells
effect on angiogenesis stimulated by T4 and T3 together (in words) ([1]; PD 98059 3 μmol/L, T4 0.1 μmol/L and T3 1 nmol/L): completely blocked; also recorded: fully inhibited
effect on FGF2 stimulation of branch formation (in words) ([1]; PD 98059, FGF2 1 μg/mL): effectively blocked

CCCc1cc(=O)[nH]c(=S)[nH]1 [PTU, 6-N-propyl-2-thiouracil]
time needed to grow from approximately 270 mm^3 to 900 mm^3 ([2]; 10 Gy of x-rays plus 0.05% PTU in the drinking water, control 6.2, x-rays alone 11.2): 17.8 days
growth rate with PTU alone (in words) ([2]; in vivo): no difference in growth rate from control neoplasms
improvement of the duration of survival [3]: 3 fold
increase in survival (Morris 7800 hepatoma): approximately 1.3 fold
effect of the presence of PTU on the effect of T4 (in words) ([1]; filter disks pretreated with 1 mmol/L PTU): did not reduce the effect of T4

CC(C)[Si](OC(=O)Cc1cc(I)c(Oc2cc(I)c(O)c(I)c2)c(I)c1)(C(C)C)C(C)C [Tetrac analog 5, Triisopropylsilyl-2-(4-(4-hydroxy-3,5-diiodophenoxy)-3,5-diiodophenyl)acetate]
Mean inhibition of angiogenesis (%) [4]: 104 ± 14%
Hemoglobin (mg/mL) ± SEM [4]: 0.2 ± 0.1 mg/mL
inhibition of FGF-induced angiogenesis (in words) [4]: strong
Mean % Inhibition ([1]; FGF (1.25 μg/ml) + test substance, 10 μg/plug per footnote, numbers are Tetrac analogs of Example 13): 75 ± 19%
Mean Branch points ([1]; FGF (1.25 μg/ml) + test substance, 10 μg/plug per footnote, numbers are Tetrac analogs of Example 13, n = 8, PBS 73 ± 6, FGF 130 ± 11): 87 ± 11
melting point: 146 °C

O=C(Cc1cc(I)c(Oc2cc(I)c(OCC3CO3)c(I)c2)c(I)c1)NC1CCCCC1 (stereo not shown) [Tetrac analog 6, N-cyclohexyl-2-(4-(3,5-diiodo-4-(oxiran-2-ylmethoxy)phenoxy)-3,5-diiodophenyl)acetamide]
Mean inhibition of angiogenesis (%) [4]: 80 ± 16%
Hemoglobin (mg/mL) ± SEM [4]: 0.7 ± 0.1 mg/mL
inhibition of FGF-induced angiogenesis (in words) [4]: strong
inhibition of angiogenesis in the CAM assay (in words) ([1]; numbers are Tetrac analogs of Example 13): not as strong as compounds 3, 5, 7, and 9
melting point: 242 °C

CNTO 95: human anti-αv integrin monoclonal antibody
increase in sensitivity (in vitro apoptosis) by a factor of (M21 melanoma cells): 2 fold
